Test results published in US10610520B2, “Heterocyclic compound” (Takeda Pharmaceutical Company Limited, priority 2016, dated 2020).

Tested on: intracerebral 2-AG and arachidonic acid
Assay: Measurement of intracerebral 2-AG and arachidonic acid concentrations after oral administration
Type: in vivo, C57BL/6J mice
Details: for 2-AG concentration / arachidonic acid concentration: cerebrum, male C57BL/6J mice, 3 mg/kg by gavage; for 2-AG concentration: control 9.9; for arachidonic acid concentration: control 163.5; for migration into brain: oral administration to C57BL/6J mice, 3 mg/kg
Protocol: As the mouse, 8-week-old male C57BL/6J mice (CLEA Japan, Inc.) were used (6 mice/group). Administration solutions were prepared by suspending the test compounds (compound 1 (compound of Example 279), compound 2 (compound of Example 361) and compound 3 (compound of Example 362)) in 0.5% methylcellulose solution (Wako Pure Chemical Industries, Ltd.). The dose of the test compound was prepared to be 3 mg/kg body weight/10 mL. The test compounds were administered by gavage at 3 mg/kg body weight. The cerebrum was isolated after the administration of the test compound (isolation time after the administration of the test compound is shown in Table 3), and the cerebrum hemisphere was extracted. The obtained cerebrum hemisphere was frozen on dry ice, and the frozen tissue weight was measured.
The cerebral tissue weight was measured, and cerebral tissue was homogenized with 4-fold (v/w) of isopropanol (IPA), and double diluted with IPA. To the diluted sample (200 μL) was added internal standard solution (5 μL) ([5,6,8,9,11,12,14,15-D8]-(5Z,8Z,11Z,14Z)5,8,11,14-eicosatetraenoic acid (AA-d8, 0.5 nmol/mL IPA) and [5,6,8,9,11,12,14,15-D8]-(5Z,8Z,11Z,14Z)-5,8,11,14-eicosatetraenoyl-2-glycerol ester (2-AG-d3, 0.5 nmol/mL IPA)), and the mixture was centrifuged at 15000 rpm for 5 min. The supernatant was injected to liquid chromatography mass spectrometer to perform quantitative analysis.
For liquid chromatography, Shimadzu LC20A system (Shimadzu Corporation) was used. The separation was performed by gradient elution method with mobile phase A (10 mmol/L HCOONH4/HCOOH (100:0.2, v/v)) and mobile phase B (ethanol/IPA (3:2, v/v)) using Shim-pack XR-ODS (2.2 μm, 2.0×30 mm, Shimadzu Corporation) at column temperature of 50° C., at flow rate of 0.5 mL/min. The gradient conditions are as follows: 0-1 min, 1% B; 1-1.2 min, 1-55% B; 1.2-2.7 min, 55-75% B; 2.7-3.5 min, 75-99% B; 3.5-6 min, 99% B; 6-8 min, 1% B.
For mass spectrometer, API5000 (AB SCIEX) was used. The eluate from the liquid chromatography was directly ionized by turbospray ionization method, where (5Z,8Z,11Z,14Z)5,8,11,14-eicosatetraenoic acid (AA) and AA-d8 were measured by negative ionization mode, and (5Z,8Z,11Z,14Z)5,8,11,14-eicosatetraenoyl-2-glycerol ester (2-AG) and 2-AG-d3 were measured by positive ionization mode.
A solution for calibration curve was prepared to the concentration of 2, 5, 10, 20, 50, 100, 200, 500, 1000 nmol/mL of acetonitrile. These solutions (10 μL) was mixed with 200 μL of IPA and 5 μL of internal standard solution, and the mixture was centrifuged at 15000 rpm for 5 min, and the supernatant was injected to liquid chromatography mass spectrometer to perform analysis. The calibration curve was drawn by regression line with a weighting of 1/x^2, and the quantitativity was confirmed by accuracy of 100±20% and R^2>0.99.

[1] = isolation 1 hour after administration
[2] = isolation 2 hour after administration

migration into brain | SMILES | 2-AG concentration [1] [nmol/g] | arachidonic acid concentration [1] [nmol/g] | 2-AG concentration [2] [nmol/g] | arachidonic acid concentration [2] [nmol/g]
migrated into brain | O=C1NC2(CO1)CN(C(=O)c1sc3cc(F)cc(F)c3c1Cl)C2 [compound 3, 2-((3-chloro-4,6-difluoro-1-benzothiophen-2-yl)carbonyl)-7-oxa-2,5-diazaspiro[3.4]octan-6-one] | 25.7 | 156.1 |  | 
migrated into brain | O=C1NC2(CO1)CN(C(=O)c1sc3cc(F)ccc3c1Cl)C2 [compound 2, 2-((3-chloro-6-fluoro-1-benzothiophen-2-yl)carbonyl)-7-oxa-2,5-diazaspiro[3.4]octan-6-one] | 30.2 | 151.8 |  | 
migrated into brain | O=C1NC2(CO1)CN(C(=O)c1sc3c(F)c(OC(F)(F)F)ccc3c1Cl)C2 [compound 1, 2-((3-chloro-7-fluoro-6-(trifluoromethoxy)-1-benzothiophen-2-yl)carbonyl)-7-oxa-2,5-diazaspiro[3.4]octan-6-one] |  |  | 73.2 | 109.4
